Source: US12054660B2, “Compound, composition, cured substance, optically anisotropic body, optical element, and light guide element” (FUJIFILM Corporation, priority 2021, dated 2024)

Experiment: Evaluation of liquid crystallinity (hot stage, polarization microscope)
Assay type: physicochemical
Design: key: A case of having liquid crystallinity was evaluated as A; a case of having no liquid crystallinity was evaluated as B
Settings: heated on a hot stage
Text: As a specific observation method, optical anisotropy and fluidity derived from the liquid crystal phase can be checked by carrying out an observation under a polarization microscope while heating or lowering the temperature of the compound with a hot stage or the like.
The respective compounds of Examples and Comparative Examples (the compounds A-1, A-3 to A-20, and the compounds RA-1 and RA-2) were heated on a hot stage and observed with a polarization microscope, and the phase transition temperature was measured to evaluate the presence or absence of liquid crystallinity. A case of having liquid crystallinity was evaluated as A, and a case of having no liquid crystallinity was evaluated as B. The results are shown in Table 1.
In the case of `CC(=O)OCCSc1ccc(C#Cc2ccc(CSc3ccc(C#Cc4ccc(CCOC(C)=O)cc4)cc3)cc2C)cc1` [Compound A-1], the Liquid crystallinity is reported as “B”.
For `C=CC(=O)OCCSc1ccc(C#Cc2ccc(COc3ccc(C#Cc4ccc(SCCOC(=O)C=C)cc4)cc3C(=O)OC)cc2)cc1` [Compound A-3], the Liquid crystallinity was “A”.
With `C=CC(=O)OCCSc1ccc(C#Cc2ccc(C(=O)Oc3ccc(C#Cc4ccc(SCCOC(=O)C=C)cc4)cc3C(=O)OC)cc2)cc1` [Compound A-4] the Liquid crystallinity was “A”.
In the case of `C=CC(=O)OCCSc1ccc(C#Cc2ccc(SCc3ccc(C#Cc4ccc(SCCOC(=O)C=C)cc4)c(OC)c3)cc2)cc1` [Compound A-5], the Liquid crystallinity is reported as “B”.
With `C=CC(=O)OCCSc1ccc(C#Cc2ccc(COc3ccc(C#Cc4ccc(SCCOC(=O)C=C)cc4)cc3C)cc2)cc1` [Compound A-6] the Liquid crystallinity was “A”.

Experiment: Evaluation of solubility in methyl ethyl ketone
Assay type: physicochemical
Settings: precipitation concentration in methyl ethyl ketone at room temperature (25° C.)
Protocol: The solubility of each of the compounds of Examples and Comparative Examples (the compounds A-1, A-3 to A-20, and the compounds RA-1 and RA-2) in methyl ethyl ketone was evaluated. A solution in which the compound was ultrasonically dissolved or dissolved by heating was produced.
In the case of `CC(=O)OCCSc1ccc(C#Cc2ccc(CSc3ccc(C#Cc4ccc(CCOC(C)=O)cc4)cc3)cc2C)cc1` [Compound A-1], the Solubility is reported as “A (the solubility in a case where the precipitation concentration was 10% by mass or more was evaluated as A)”.
With `C=CC(=O)OCCSc1ccc(C#Cc2ccc(COc3ccc(C#Cc4ccc(SCCOC(=O)C=C)cc4)cc3C(=O)OC)cc2)cc1` [Compound A-3] the Solubility was “A (the solubility in a case where the precipitation concentration was 10% by mass or more was evaluated as A)”.
In the case of `C=CC(=O)OCCSc1ccc(C#Cc2ccc(C(=O)Oc3ccc(C#Cc4ccc(SCCOC(=O)C=C)cc4)cc3C(=O)OC)cc2)cc1` [Compound A-4], the Solubility is reported as “A (the solubility in a case where the precipitation concentration was 10% by mass or more was evaluated as A)”.
In the case of `C=CC(=O)OCCSc1ccc(C#Cc2ccc(SCc3ccc(C#Cc4ccc(SCCOC(=O)C=C)cc4)c(OC)c3)cc2)cc1` [Compound A-5], the Solubility is reported as “A (the solubility in a case where the precipitation concentration was 10% by mass or more was evaluated as A)”.
In the case of `C=CC(=O)OCCSc1ccc(C#Cc2ccc(COc3ccc(C#Cc4ccc(SCCOC(=O)C=C)cc4)cc3C)cc2)cc1` [Compound A-6], the Solubility is reported as “A (the solubility in a case where the precipitation concentration was 10% by mass or more was evaluated as A)”.

Experiment: Evaluation of light resistance of optically anisotropic layer
Assay type: physicochemical
Settings: rate of change in Re of layer (25 parts compound/75 parts L-1) after xenon irradiation 50 hours, 63° C., 50% RH, oxygen-blocking
Protocol: (§1) As shown below, the durability of the optically anisotropic layer produced using the composition containing each of the compounds A-1 and A-3 to A-20, and the compounds RA-1 and RA-2 was evaluated.
(§2) A coating composition having the following composition was prepared and applied by spin coating onto a rubbing-treated glass attached with an alignment film.
(§3) The polymerizable liquid crystal compound L-1 is a mixture obtained by mixing at a ratio of the following L-1-1/L-1-2/L-1-3=84/14/2 (in terms of mass ratio).
The produced optically anisotropic layers for light resistance/durability tests were irradiated with light using a Super Xenon Weather Meter SX75 manufactured by Suga Test Instruments Co., Ltd. Using KU-1000100 manufactured by King Seisakusho Co., Ltd. as an ultraviolet ray cut filter, irradiation with 5 million 1× of light was carried out for 50 hours under the oxygen-blocking conditions to carry out a light resistance test. The temperature of the specimen to be tested (the temperature inside the test device) was set to 63° C. The relative humidity in the test device was 50% RH.
The Re of the optically anisotropic layer before and after the light resistance test was measured, the light resistance in a case where the rate of change in Re described below was less than 10% was evaluated as A, and the light resistance in a case where the rate of change in Re was 10% or more was evaluated as B. The smaller the rate of change in Re, the more excellent the light resistance.
(§4) Re is an in-plane retardation. Rate of change in Re (%)=[100×{|(Re after test)−(Re before test)|}/(Re before test)]
(§5) Re was measured with Axoscan manufactured by Axometrics, Inc. at a wavelength of 550 nm, and the measurement temperature was set to room temperature.
For `CC(=O)OCCSc1ccc(C#Cc2ccc(CSc3ccc(C#Cc4ccc(CCOC(C)=O)cc4)cc3)cc2C)cc1` [Compound A-1], the Light resistance was “A (the light resistance in a case where the rate of change in Re described below was less than 10% was evaluated as A)”.
With `C=CC(=O)OCCSc1ccc(C#Cc2ccc(COc3ccc(C#Cc4ccc(SCCOC(=O)C=C)cc4)cc3C(=O)OC)cc2)cc1` [Compound A-3] the Light resistance was “A (the light resistance in a case where the rate of change in Re described below was less than 10% was evaluated as A)”.
In the case of `C=CC(=O)OCCSc1ccc(C#Cc2ccc(C(=O)Oc3ccc(C#Cc4ccc(SCCOC(=O)C=C)cc4)cc3C(=O)OC)cc2)cc1` [Compound A-4], the Light resistance is reported as “B (the light resistance in a case where the rate of change in Re was 10% or more was evaluated as B)”.
For `C=CC(=O)OCCSc1ccc(C#Cc2ccc(SCc3ccc(C#Cc4ccc(SCCOC(=O)C=C)cc4)c(OC)c3)cc2)cc1` [Compound A-5], the Light resistance was “A (the light resistance in a case where the rate of change in Re described below was less than 10% was evaluated as A)”.
With `C=CC(=O)OCCSc1ccc(C#Cc2ccc(COc3ccc(C#Cc4ccc(SCCOC(=O)C=C)cc4)cc3C)cc2)cc1` [Compound A-6] the Light resistance was “A (the light resistance in a case where the rate of change in Re described below was less than 10% was evaluated as A)”.

Experiment: Measurement of Δn (refractive index anisotropy), wedge-shaped liquid crystal cell
Assay type: physicochemical
Settings: 550 nm, 30° C. or lower limit temperature of nematic phase+0 to 10° C.; some extrapolated from 1/2 mixture with L-1-1
Protocol: The Δn of each of the compounds of Examples and Comparative Examples (the compounds A-1, A-3 to A-20, and the compounds RA-1 and RA-2), which are the compounds to be measured, was measured by a method using a wedge-shaped liquid crystal cell described on page 202 in the Liquid crystal handbook (edited by the liquid crystal handbook editorial board, published by Maruzen Co., Ltd., 2000). An was defined as a measured value at a wavelength of 550 nm at 30° C. or the lower limit temperature of the nematic phase+0° C. to 10° C. In a case of a compound which is liable to crystallize or a compound having no liquid crystallinity, evaluation was carried out using a mixture thereof with the other liquid crystal compound, and Δn was estimated from the extrapolated value of the measured value thereof. The following L-1-1 was used as the other liquid crystal compound. As the above mixture, a mixture obtained by mixing at a ratio of the compound to be measured/the L-1-1=1/2 (in terms of mass ratio) was used.
A case where Δn was 0.35 or more was evaluated as A, a case where Δn was 0.32 or more and less than 0.35 was evaluated as B, a case where Δn was 0.30 or more and less than 0.32 was evaluated as C, and a case where Δn was less than 0.30 was evaluated as D. The results are shown in Table 1.
In the case of `CC(=O)OCCSc1ccc(C#Cc2ccc(CSc3ccc(C#Cc4ccc(CCOC(C)=O)cc4)cc3)cc2C)cc1` [Compound A-1], the Δn is reported as “A (A case where Δn was 0.35 or more was evaluated as A)”.
For `C=CC(=O)OCCSc1ccc(C#Cc2ccc(COc3ccc(C#Cc4ccc(SCCOC(=O)C=C)cc4)cc3C(=O)OC)cc2)cc1` [Compound A-3], the Δn was “A (A case where Δn was 0.35 or more was evaluated as A)”.
In the case of `C=CC(=O)OCCSc1ccc(C#Cc2ccc(C(=O)Oc3ccc(C#Cc4ccc(SCCOC(=O)C=C)cc4)cc3C(=O)OC)cc2)cc1` [Compound A-4], the Δn is reported as “A (A case where Δn was 0.35 or more was evaluated as A)”.
With `C=CC(=O)OCCSc1ccc(C#Cc2ccc(SCc3ccc(C#Cc4ccc(SCCOC(=O)C=C)cc4)c(OC)c3)cc2)cc1` [Compound A-5] the Δn was “A (A case where Δn was 0.35 or more was evaluated as A)”.
In the case of `C=CC(=O)OCCSc1ccc(C#Cc2ccc(COc3ccc(C#Cc4ccc(SCCOC(=O)C=C)cc4)cc3C)cc2)cc1` [Compound A-6], the Δn is reported as “A (A case where Δn was 0.35 or more was evaluated as A)”.

Experiment: Evaluation of durability (moisture-heat resistance test) of optically anisotropic layer
Assay type: physicochemical
Settings: rate of change in Re of layer (25 parts compound/75 parts L-1) after 136 hours at 100° C., 95% RH
Protocol: as §1, §2, §3, §4, §5
The produced optically anisotropic layer was allowed to be left for 136 hours at 100° C. and a relative humidity of 95% RH, whereby a moisture-heat resistance test was carried out. The rate of change in Re before and after the durability test was evaluated, the durability in a case where the rate of change in Re was less than 10% was evaluated as A, and the durability in a case where the rate of change in Re was 10% or more was evaluated as B. The smaller the rate of change in Re, the more excellent the durability.
In the case of `CC(=O)OCCSc1ccc(C#Cc2ccc(CSc3ccc(C#Cc4ccc(CCOC(C)=O)cc4)cc3)cc2C)cc1` [Compound A-1], the Durability is reported as “B (the durability in a case where the rate of change in Re was 10% or more was evaluated as B)”.
For `C=CC(=O)OCCSc1ccc(C#Cc2ccc(COc3ccc(C#Cc4ccc(SCCOC(=O)C=C)cc4)cc3C(=O)OC)cc2)cc1` [Compound A-3], the Durability was “A (the durability in a case where the rate of change in Re was less than 10% was evaluated as A)”.
In the case of `C=CC(=O)OCCSc1ccc(C#Cc2ccc(C(=O)Oc3ccc(C#Cc4ccc(SCCOC(=O)C=C)cc4)cc3C(=O)OC)cc2)cc1` [Compound A-4], the Durability is reported as “A (the durability in a case where the rate of change in Re was less than 10% was evaluated as A)”.
With `C=CC(=O)OCCSc1ccc(C#Cc2ccc(SCc3ccc(C#Cc4ccc(SCCOC(=O)C=C)cc4)c(OC)c3)cc2)cc1` [Compound A-5] the Durability was “A (the durability in a case where the rate of change in Re was less than 10% was evaluated as A)”.
For `C=CC(=O)OCCSc1ccc(C#Cc2ccc(COc3ccc(C#Cc4ccc(SCCOC(=O)C=C)cc4)cc3C)cc2)cc1` [Compound A-6], the Durability was “A (the durability in a case where the rate of change in Re was less than 10% was evaluated as A)”.
